The source of these data is patent publication US20220338471A1, “HONEY BEE-SAFE ACARICIDAL COMPOUNDS” (Kansas State University Research Foundation, priority 2019, published 2022).

The target of data set [1] is T1, varroa mite proctolin receptor (VdProctR) (Varroa destructor, UniProt A0A7T1TE40).
T1 sequence (A0A7T1TE40 1-530): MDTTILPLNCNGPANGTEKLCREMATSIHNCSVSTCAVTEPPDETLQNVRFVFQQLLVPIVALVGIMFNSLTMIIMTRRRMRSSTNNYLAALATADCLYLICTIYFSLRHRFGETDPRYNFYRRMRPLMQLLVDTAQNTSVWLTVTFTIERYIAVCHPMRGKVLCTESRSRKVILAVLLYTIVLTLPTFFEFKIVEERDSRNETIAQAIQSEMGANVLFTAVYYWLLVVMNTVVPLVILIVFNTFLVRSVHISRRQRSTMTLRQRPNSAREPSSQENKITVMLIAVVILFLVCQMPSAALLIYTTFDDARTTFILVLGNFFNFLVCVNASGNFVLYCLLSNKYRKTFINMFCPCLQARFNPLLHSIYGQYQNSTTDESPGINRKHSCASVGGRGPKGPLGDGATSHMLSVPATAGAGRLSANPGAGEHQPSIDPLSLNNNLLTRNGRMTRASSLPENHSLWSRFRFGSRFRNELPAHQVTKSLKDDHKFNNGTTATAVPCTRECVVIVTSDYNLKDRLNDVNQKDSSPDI
As to the kind of experiment: Receptor activity assay: luminescence in cells transiently transfected with varroa mite proctolin receptor. As to conditions: for Activity at high concentrations compared with proctolin: at 1 μM and 10 μM; for EC50: varroa mite proctolin receptor; for Factor by which potency exceeds that of the corresponding analog with only a single replacement at Y2: 2338 vs 2333, 2337 vs 2329. The format is cell-based. The protocol:
(§1) Approximately thirty hours after transfection, the cells were collected and preincubated with coelenterazine h for the functional assay. The ligands in serial dilutions were loaded into 96-well opaque plates. Cells treated with coelenterazine h were injected into each well on an Orion microplate luminometer (Berthold) luminescent plate reader. The luminescence was measured for 20 seconds immediately after the cell injections. Data analyses were performed to determine the accumulated luminescence value for 20 seconds after extraction of blank-well luminescence. A dose-response curve was generated and the EC50 (50% effective concentration) was calculated in Origin 7 (OriginLab).

In data set [2] the test system is Varroa mites. The data set can be described thus: Injection of compound into the body cavity of varroa mites (excretion). The format is in vivo, Varroa destructor. As to conditions: ~5 nL of 200 μM. From the text: Micro-glass electrodes were used for the injections using the pressure injection system (Dagan PMI-200). All injected animals were within 5 hr after the collections as described above.

The subject of data set [3] is Varroa mites. The data set can be described thus: Varroa mite toxicity test (forced feeding, 200 nL drop on the gnathosoma; paralysis/death counted). The format is in vivo, Varroa destructor. As to conditions: 48-hour treatment, feeding assay. The method, then:
Varroa mite toxicity test: Adult female Varroa mites were collected using a sugar roll method from honey bee hives located at the East Campus apiary of the University of Nebraska (Lincoln, Nebr. USA). The hives were not treated with chemicals for honey bee parasites or pathogens. The mites were sorted in the laboratory with a paint brush and tested within 4 h post collection. The mites were placed in 9 cm diameter Petri dishes (Fisher Scientific) lined with filter paper. The dorsal side of the mites was secured to a strip of tape placed on the filter paper. Ten mites were secured to the tape in each dish and three dishes were used for each treatment (i.e., 30 mites/treatment). The peptide mimics were prepared in autoclaved ddH2O to a concentration of 0.1 nM for 2334, 2336, and Ac-2442 and 3 nM for 2326. Each peptide mimic was delivered as a 200 nL aliquot to the gnathosoma of the mites with autoclaved ddH2O serving as the untreated control. Following exposure to the peptide mimics, the number of affected (i.e., dead and/paralyzed) was observed and recorded at 1, 2, 6, 12, 24, and 48 h. The percent effect for each treatment was analyzed using a one-way analysis of variance (ANOVA) with a Tukey's post-hoc test (GraphPad Prism, La Jolla, Calif.; p<0.05).
In the continued bioassay (FIG. 4 and FIG. 5), the toxicities were assessed by counting paralysis/death in feeding assay. […]

For the next data set, the system named is worker honey bees. The data set can be described thus: Injection into the thorax of worker honey bees (negative effects). The format is in vivo, honey bee. As to conditions: injection of 50 nL at 200 μM into the thorax, 24-hour observation, n=4. The method, then: (§2) Honey bee FMRFamide receptor was cloned and expressed in the same system as described for the procotolin receptor. […] Potential effects of the peptidomimetics 2439, 2334, 2336, Ac-2442, and H2O control were tested by injections of the compounds into the thorax of worker honey bees.

A further data set has as its system honey bee queen. As to conditions: injection, 1 μL containing 1 μg; cited from earlier work.
For a further data set, the system named is Bombyx mori larval gut. As to conditions: cited from earlier work.
For data set [4], the system named is honey bee FMRFamide receptor. As to the kind of experiment: Activity on the honey bee FMRFamide receptor expressed in the same system. The format is cell-based. As to conditions: in words. The method, then: as §1, §2
In data set [5] the test system is empty vector transfected cells. The data set can be described thus: Receptor activity assay, negative control: cells transfected with empty vector. The format is cell-based. As to conditions: 10 μM proctolin. The method, then: as §1, with “Receptor activity assay: […] Approximately” for “Approximately”, “[…] The receptor” for “A dose-response curve”, “also tested with a variety of peptide analogues” for “generated”, “peptidomimetics.” for “the EC50 (50% effective concentration) was calculated in Origin 7 (OriginLab).”

The mark [6] stands for this setting: first set of experiments, EC50 relative to proctolin (0.22 nM).
Where [7] appears, read: first set of experiments, read-out: EC50.
The mark [8] stands for this setting: EC50 (nM), first set of experiments.
Setting [9] is: EC50 (nM), second set of peptidomimetics.
[10] abbreviates: second set, EC50 relative to proctolin (14.19 nM).

“And” between values parts separate entries of the source, which are not always exact repeats. Equal entries are not always repeated. Where two headings read alike, the source gives them in different places. Square brackets hold non-standard residues; d marks the D form. Ends that are not written are not given here. Peptide text beside a SMILES is read from it. Oic = O=C(O)[C@@H]1C[C@@H]2CCCC[C@@H]2N1; Phe(4-Cl) = N[C@@H](Cc1ccc(Cl)cc1)C(=O)O; Phe(4-F) = N[C@@H](Cc1ccc(F)cc1)C(=O)O; Hyp = O=C(O)[C@@H]1C[C@@H](O)CN1; β3hF = N[C@H](CC(=O)O)Cc1ccccc1

As to `CC(C)C[C@H](NC(=O)[C@H](Cc1ccc(O)cc1)NC(=O)[C@@H](N)CCCNC(=N)N)C(=O)N1C[C@H](O)C[C@H]1C(=O)N[C@H](C(=O)O)[C@@H](C)O` [Analog 2334, RYL[HyP]T] (H-RYL[Hyp]T-OH; N-terminus assumed), in data set [1], the “Activity at high concentrations compared with proctolin” value is on record as “higher than that of proctolin”. For the same compound, the Fold change in data set [1] (setting [6]) is 2.5 and 2.45. Besides, the EC50 (commonly the concentration needed to bring the measured effect to its halfway point) in data set [1] (setting [7]) amounted to 0.54 nM. Also, the “Agonist activity / potency on the Varroa mite proctolin receptor, in words” value in data set [1] (in words) is on record as “strong agonists”. In addition, the “Individuals with immediate excretion of a drop of fecal material through the anus” value in the data set on Varroa mites [2] is reported as 3/4.

Regarding `CC(C)C[C@H](NC(=O)[C@H](Cc1ccc(O)cc1)NC(=O)[C@@H](N)CCCNC(=N)N)C(=O)N1[C@H](C(=O)N[C@H](C(=O)O)[C@@H](C)O)C[C@@H]2CCCC[C@@H]21` [Analog 2336, RYL[Oic]T] (H-RYL[Oic]T-OH; N-terminus assumed), the “Percent effect (paralyzed or dead mites)” value with Varroa mites [3] was found to be 100%. Further, the “Negative effects in worker honey bees” value with worker honey bees is given as “did not show any negative effects”. For the same compound, the “Activity at high concentrations compared with proctolin” value in data set [1] is on record as “higher than that of proctolin”. Besides, the Fold change in data set [1] (setting [6]) is given as 5.95. Moreover, the EC50 in data set [1] (setting [7]) was 1.3 nM and 1.31 nM. For the same compound, in data set [1] (in words), the “Agonist activity / potency on the Varroa mite proctolin receptor, in words” value is “strong agonists”.

Regarding `CC(C)C[C@H](NC(=O)[C@@H](Cc1ccc(O)cc1)NC(=O)[C@@H](N)CCCNC(=N)N)C(=O)N1C[C@H](O)C[C@H]1C(=O)N[C@H](C(=O)O)[C@@H](C)O` [Analog 2337, R[dY]L[HyP]T] (H-R[dY]L[Hyp]T-OH; N-terminus assumed), the “Factor by which potency exceeds that of the corresponding analog with only a single replacement at Y2” value in data set [1] turned out to be 4. The EC50 in data set [1] (setting [8]) is 36 nM and 35.9 nM. Besides, in data set [1] (setting [6]), the Fold change was 163.00. In addition, in data set [1] (in words), the “Efficacy (maximal response)” value is recorded as “full efficacy”.

For `CC(C)C[C@H](NC(=O)C[C@H](Cc1ccccc1)NC(=O)[C@@H](N)CCCNC(=N)N)C(=O)N1C[C@H](O)C[C@H]1C(=O)N[C@H](C(=O)O)[C@@H](C)O` [Analog 2338, R[β3F]L[HyP]T] (H-R[β3hF]L[Hyp]T-OH), the “Factor by which potency exceeds that of the corresponding analog with only a single replacement at Y2” value in data set [1] was 8. Besides, the 50% effective concentration (EC50) in data set [1] (setting [8]) is 26 nM and 26.3 nM. Besides, in data set [1] (setting [6]), the Fold change was 119.59. The “Efficacy (maximal response)” value in data set [1] (in words) is recorded as “full efficacy”.

For the compound `CC(C)C[C@H](NC(=O)[C@@H](Cc1ccc(O)cc1)NC(=O)[C@@H](N)CCCNC(=N)N)C(=O)N1[C@H](C(=O)N[C@H](C(=O)O)[C@@H](C)O)C[C@@H]2CCCC[C@@H]21` [Analog 2340, R[dY]L[Oic]T] (H-R[dY]L[Oic]T-OH; N-terminus assumed), in data set [1] (setting [8]), a half-maximal effect (EC50) was put at 278 nM. The same compound yielded a Fold change in data set [1] (setting [6]) of 1262.27. For the same compound, the “Potency compared with 2337 and 2338” value in data set [1] (in words) was “less potent than 2337 and 2338 by approximately an order of magnitude”.

As to `CC(C)C[C@H](NC(=O)[C@H](Cc1ccc(F)cc1)NC(=O)[C@@H](N)CCCNC(=N)N)C(=O)N1CCC[C@H]1C(=O)N[C@H](C(=O)O)[C@@H](C)O` [Analog 2438, R[Phe(4-F)]LPT] (H-R[Phe(4-F)]LPT-OH), a half-maximal effect in data set [1] (setting [9]) (EC50) was put at 7.55 nM. The compound also gave a Fold change in data set [1] (setting [10]) of 0.53.

For `CC(C)C[C@H](NC(=O)[C@H](Cc1ccc(Cl)cc1)NC(=O)[C@@H](N)CCCNC(=N)N)C(=O)N1CCC[C@H]1C(=O)N[C@H](C(=O)O)[C@@H](C)O` [Analog 2440, R[Phe(4-Cl)]LPT] (H-R[Phe(4-Cl)]LPT-OH), in data set [1] (setting [9]), the EC50 is 7.03 nM. Further, in data set [1] (setting [10]), the Fold change is 0.50.

With `CC(C)C[C@H](NC(=O)[C@H](Cc1ccc(F)cc1)NC(=O)[C@@H](N)CCCNC(=N)N)C(=O)N1C[C@H](O)C[C@H]1C(=O)N[C@H](C(=O)O)[C@@H](C)O` [Analog 2441, R[Phe(4-F)]L[HyP]T] (H-R[Phe(4-F)]L[Hyp]T-OH; N-terminus and C-terminus assumed), a half-maximal effect in data set [1] (setting [9]) (EC50) was put at 9.93 nM. The “Activity compared with proctolin, in words” value in data set [1] (second set, Y2 phenylalanine variants) is listed as “higher activity than proctolin”. The compound also had a Fold change in data set [1] (setting [10]) of 0.70.

For GRYLPT [Analog G1, GRYLPT], the EC50 in data set [1] (setting [8]) stood at 30.9 nM. The same compound showed a Fold change in data set [1] (setting [6]) of 140.36.

RGYLPT [Analog G2, RGYLPT] displayed an EC50 in data set [1] (setting [8]) of 15900 nM. The Fold change in data set [1] (setting [6]) worked out at 72095.45.

In the case of RYGLPT [Analog G3, RYGLPT], it took 31400 nM to reach a half-maximal effect in data set [1] (setting [8]) (EC50). Further, the Fold change in data set [1] (setting [6]) is on record as 142868.18.

In data set [1] (setting [8]), RYLGPT [Analog G4, RYLGPT] had an EC50 of 1090 nM. For the same compound, the Fold change in data set [1] (setting [6]) amounted to 4954.55.

RYLPGT [Analog G5, RYLPGT] had an EC50 in data set [1] (setting [8]) of 1160 nM. Moreover, the Fold change in data set [1] (setting [6]) turned out to be 5259.09.

For RYLPT [Proctolin, RYLPT], in the data set on honey bee queen, the “Egg-laying activity of the queen” value is recorded as “increased the egg-laying activity of the queen”. Moreover, the “Concentration required for hindgut contraction” value in the data set on Bombyx mori larval gut (Bombyx mori larval hindgut) is 180 µM. The “Concentration required in the midgut to slightly reduce leucine uptake” value with Bombyx mori larval gut (Bombyx mori larval midgut) is 10 µM. The “Activity on the honey bee FMRFamide receptor” value in data set [4] was “no activities”. The “Activity on empty vector transfected cells” value in data set [5] is “did not show any activity”. Also, the EC50 in data set [1] (setting [8]) was 0.22 nM; in data set [1] (setting [9]), 14.2 nM. In addition, the Fold change in data set [1] (setting [6]) and in data set [1] (setting [10]) was 1.00 each time.

For the compound RYLPTG [Analog G6, RYLPTG], a half-maximal effect in data set [1] (setting [8]) (EC50) was put at 478 nM. Also, in data set [1], the “Activity at high concentrations compared with proctolin” value is recorded as “higher than that of proctolin”. The Fold change in data set [1] (setting [6]) worked out at 2175.00.
